Where a name gives a salt, the structure may show the parent alone.

The values below come from patent publication US6420373B1, “9-N-Bicyclic nuceoside agents useful as selective inhibitors of proinflammatory cytokines” (Merrell Pharmaceuticals Inc., priority 1993, dated 2002).

For assay [1], the system named is D-galactosamine animal model of septic shock. Kind of assay: D-galactosamine animal model of septic shock (protection against lethal effects of LPS). It counts as in vivo. To be noted: treated about 1 hour before i.p. challenge of D-galactosamine and LPS, by 18 hours after challenge, test compound 100 mg/kg i.p.
In another assay the test system is TNF-α. Briefly: LPS-stimulated human monocyte-derived macrophage TNF-α inhibition assay. Conditions: 18 hours of culture. It counts as cell-based. Here is the method: Monocyte-derived macrophages stimulated with bacterial lipopolysaccharide (LPS) produce high levels of TNF-α (25.8+4.2 ηg/mL) during 18 hours of culture.

Regarding `Nc1ncnc2c1ncn2[C@H]1CC[C@H]2[C@@H]1CC[C@H]2O` (racemic) [(±)-Exo-2-adenyl-endo-6-hydroxybicyclo[3,3,0]octane Dihydrochloride], in assay [1] (mice), the protection is given as 100%. Also, the mice killed in assay [1] is 0 out of 8. In the assay with TNF-α (monocyte-derived macrophages from human peripheral blood, LPS-stimulated, dose response 100 μM-0.1 μM, read-out: IC50 for inhibiting TNF-α levels), the IC50 came out at 143 nM.
As for `CC(=O)CCCCn1c(=O)c2c(ncn2C)n(C)c1=O` [Pentoxifylline, reference compound], the inhibition at 50 µM in the assay on TNF-α (Homo sapiens, at 50 μM, LPS-stimulated monocyte-derived macrophages, read-out: inhibition of TNF-α levels) was 73.5%.
